Assay: elution of the drug from coated stents in physiological solution (UV absorbance)
Format: physicochemical
Details: stent with allylamine polymer deposited by cold plasma compared with stent with polymer according to the state of the art (polybutadiene layers); 1 cc physiological solution; absorbance at 261 nm; FIG. 1
Experimental: Next, the stents were immersed in test tubes containing 1 cc of physiological solution and the rate of elution of the drug was measured by acquiring the visible UV spectrum using a Unicam 8700 spectrophotometer and reading off the absorbance at 261 nm. The correlation between absorbance and concentration was established by measuring the absorbance of solutions of known concentration (calibration curve). The drug elution measurements were carried out at fixed time intervals and the physiological solution was changed at each measurement.
10 mg of dexamethasone were dissolved in 1 cc of ethanol and applied as described previously. The elution curves were again measured as described in example 1 and the absorbance at 264.4 nm was read off.

elution of the hydrophilic drug: significantly delays the elution
Structure (SMILES): CS(=O)(=O)O.Cc1ccc(NC(=O)c2ccc(CN3CCN(C)CC3)cc2)cc1Nc1nccc(-c2cccnc2)n1 [hydrophilic drug, 4-[(4-methyl-1-piperazinyl)methyl]-N-[4-methyl-3-[[4-(3-pyridinyl)-2-pyrimidinyl]amino]-phenyl]benzamide methanesulphonate]
